Experimental data published in patent publication US9205141B2, “Immunomodulatory methods and systems for treatment and/or prevention of hypertension” (Cardio Vax, LLC, priority 2010, dated 2015).

Assays:
bone marrow derived DCs = assay: Cytolytic activity of CD8(+) T cells from immunized mice against dendritic cells in vitro; format: cell-based
Procedure: In Vitro Generation of BM-Derived dendritic cells (BMDCs) The method for generating BMDC with GM-CSF was adapted from previous publication with modification. (19) Briefly, bone marrow cells from femurs and tibiae of male apoE−/− mice were plated into 10 cm culture plates (Falcon) with 20 ml complete RPMI-1640 containing 10 ng/ml GM-CSF (R&D Systems) and 10 ng/ml IL-4 (Invitrogen). Cells were washed and fed on day 3 and day 5 by removing the old medium followed by replenishing with fresh culture medium with GM-CSF and IL-4. On day 8, the immature DC appeared as non-adherent cells under the microscope and harvested by vigorous pipetting and subcultured into new culture plates with 2×10^5 DCs in 1.5 ml medium.
CD8(+) T-cells were negatively isolated using a CD8 selection Dynabeads kit (Invitrogen) per manufacturer's protocol. The selected CD8(+) T-cells were then co-culture with DCs in a CD8:DC ratio of 3:1. A series of pilot studies has been performed to determine the optimal CD8:DC ratio for this assay. After co-culture for 4 hours, cells were collected and processed for flow cytometric determination of CD11c and 7-AAD by LSR II flow cytometer (BD Biosciences) and data was analyzed with Summit V4.3 software. Dendritic cell death without CD8(+) T-cells in the co-culture was used as baseline and percentage of specific lysis of cells was calculated using a method described previously. (20)
One week after the third immunization, mice were euthanized to collect spleen CD8^+ T cells. Bone-marrow derived DCs were differentiated from naïve apoE−/− mice and used as target cells. […]
Applicants therefore assessed the effect of the vaccine on cytotoxic activity of CD8^+ T cells against syngeneic bone marrow-derived DCs. […] Cells were collected and processed for flow cytometric determination of CD11c^+ and 7-AAD 4 hours later.^20 Dendritic cell death without CD8^+ T cells in the co-culture was used as baseline and percentage of specific lysis of cells was calculated using a method described previously.^20

[1] = test system: CD8+CD25− T cells co-cultured with DCs; assay: Presentation of p210 by DCs to CD8+CD25− T cells in co-culture; format: cell-based; conditions: 48 hours, DCs treated with LPS, compared to untreated or LPS only treated co-cultures
Excerpt: The p210 peptide contains the proteoglycan binding site of the apoB-100 molecule. This peptide is a cell-penetrating peptide capable of efficiently delivering antigens for cross-presentation to cytotoxic CD8^+ T cells.^53 Applicants therefore assessed activation of CD8^+CD25^− T cells co-cultured with DCs loaded with p210 and matured with LPS.

[2] = test system: naïve male apoE (−/−) recipient mice; assay: Adoptive transfer of cells from immunized donors to naive apoE (−/−) recipients; format: in vivo
Excerpt: Adoptive transfer experiment Male apoE (−/−) mice on regular chow received subcutaneous immunization as described in previous paragraph and were sacrificed at 13 weeks of age as donors. Splenocytes from the same treatment group were pooled before cell isolation. Donor CD8(+) T-cells, CD4(+)CD25(+) T-cells or B-cells were isolated using Dynabeads FlowComp (Invitrogen) according to the manufacturer's protocols. CD4(+) T-cells were negatively selected from the splenocytes followed by positive selection of CD4(+)CD25(+) cells. B cells were negatively isolated whereas CD8(+) T-cells were positively isolated first and released from beads. The purity of pooled CD8(+) T-cells, CD4(+)CD25(+) T-cells and B-cells was 90%, 80% and 70%, respectively. The isolated CD8(+) T-cells (1×10^6 cells/mouse), CD4(+)CD25(+) T-cells (1×10^5 or 3×10^5 cells/mouse) or B-cells (2×10^7 cells/mouse) were then adoptively transferred to naïve male apoE (−/−) recipient mice at 6-7 weeks of age via tail vein injection. In the published literatures of vascular biology, the number of adoptively transferred lymphocytes varied greatly. For B-cells transfer, the number of 2×10^7 cells/mouse was chosen based on two prior reports. (11),(12) For CD4(+)CD25(+) T-cells transfer, the number of cells transferred ranged from 5×10^4 cells/mouse to 1×10^6 cells/mouse in the published literature. […]

[3] = test system: AngII-infused male apoE KO mice; assay: Blood pressure and heart rate in angiotensin II-infused apoE KO mice after P210 immunization; format: in vivo; conditions: apoE KO mice immunized s.c. 100 μg at 7, 10, 12 weeks; AngII 1000 ng/Kg/min; 4 weeks after pump implantation
Procedure: Saline was delivered to the control group.
Angiotensin II infusion via implanted osmotic pump was started at 10 weeks of age. Mice were euthanized at 14 weeks of age. Blood pressure was measured throughout the duration of experiment.

BMDCs = assay: Endocytosis of FITC-labeled p210 by DCs in vitro; format: cell-based, mice; conditions: FITC fluorescence in BMDCs
Excerpt: Peptide loading on BMDCs was defined using p210 labeled with FITC (FITC conjugating kit from Pierce).

male apoE (−/−) mice = assay: Athero-protective effect of p210 immunization in apoE (−/−) mice on high cholesterol chow; format: in vivo; conditions: 100 μg dose compared to 25 or 50 μg dose
Excerpt: Selection of peptides and their preparation for immunization The establishment and screening of human apoB-100 peptides has been reported (8). Based on Applicants pilot experiments and prior reports, (9),(10) Applicants selected peptide 210 (p210, KTTKQ SFDLS VKAQY KKNKH—SEQ ID NO: 210) as a candidate immunogen. Native p210 peptide (Euro-Diagnostica AB, Sweden) was conjugated to cationic bovine serum albumin (cBSA) as carrier using a method described previously. (3),(4) Alum was used as adjuvant and mixed with peptide/cBSA conjugate with 1:1 ratio in volume. Peptide conjugation and mixing with alum were prepared fresh prior to each immunization.
Immunization protocols Male apoE (−/−) mice (Jackson Laboratories) were housed in an animal facility accredited by the American Association of Accreditation of Laboratory Animal Care and kept on a 12-hour day/night cycle with unrestricted access to water and food. The Institutional Animal Care and Use Committee of Cedars-Sinai Medical Center approved the experimental protocols. […] Mice, maintained on normal chow diet, received subcutaneous primary immunization in the dorsal area between scapulas at 6-7 weeks of age, followed by a booster at 9 and 12 weeks of age. One week after last booster, diet was switched to high cholesterol chow (TD 88137, Harlan-Teklad) and continued until euthanasia at the age of 25 weeks. […]

[4] = CD8(+) T-cells from immunized mice vs PBS or cBSA/alum

KTTKQ SFDLS VKAQY KKNKH (KTTKQSFDLSVKAQYKKNKH) [p210, amino acids 3136-3155 of human apoB-100]
granzyme B expression of CD8(+) T-cells (bone marrow derived DCs; [4]): increased granzyme B expression
perforin level of CD8(+) T-cells (bone marrow derived DCs; [4]): no difference in perforin level
cytolytic activity after depletion of CD25+ cells (bone marrow derived DCs; CD8+ T cells depleted of CD25+ cells): abrogated the increased cytolytic activity
activated CD8+CD25+ T cells after co-culture with p210-loaded DCs [1]: significantly increased CD8^+CD25^+ T cells
lesion size in recipients of CD4(+)CD25(+) T-cells ([2]; 1×10^5 cells/mouse): no difference in lesion size
lesion size in recipients of CD4(+)CD25(+) T-cells ([2]; 3×10^5 cells/mouse): did not reduce lesion sizes
reduction in blood pressure [3]: about 11%
uptake of FITC-labeled p210 by dendritic cells (BMDCs): endocytosed by DCs
athero-reduction by dose (pilot experiment) (male apoE (−/−) mice): optimum athero-reduction
